Source: patent publication US9220740B2

Legend:
breast cancer = settings: cited from earlier work
TNF-RE tkLuc = assay: Effect of antiestrogens on TNF-RE tkLuc (Example 2); type: cell-based, human; settings: for effect on the repression induced by E2: TNF-RE tkLuc; for activation of TNF-RE tkLuc: antiestrogens
ERβ [1] = target: T1, ERβ (Homo sapiens, UniProt Q92731); assay: ERE-tk-Luc luciferase activation in U2OS cells cotransfected with human ERβ; type: cell-based; parameters: expressed in transfected cells; host or cells: U2OS (human osteosarcoma); settings: competition with the Astragalus extract
T1 sequence (Q92731 whole entry): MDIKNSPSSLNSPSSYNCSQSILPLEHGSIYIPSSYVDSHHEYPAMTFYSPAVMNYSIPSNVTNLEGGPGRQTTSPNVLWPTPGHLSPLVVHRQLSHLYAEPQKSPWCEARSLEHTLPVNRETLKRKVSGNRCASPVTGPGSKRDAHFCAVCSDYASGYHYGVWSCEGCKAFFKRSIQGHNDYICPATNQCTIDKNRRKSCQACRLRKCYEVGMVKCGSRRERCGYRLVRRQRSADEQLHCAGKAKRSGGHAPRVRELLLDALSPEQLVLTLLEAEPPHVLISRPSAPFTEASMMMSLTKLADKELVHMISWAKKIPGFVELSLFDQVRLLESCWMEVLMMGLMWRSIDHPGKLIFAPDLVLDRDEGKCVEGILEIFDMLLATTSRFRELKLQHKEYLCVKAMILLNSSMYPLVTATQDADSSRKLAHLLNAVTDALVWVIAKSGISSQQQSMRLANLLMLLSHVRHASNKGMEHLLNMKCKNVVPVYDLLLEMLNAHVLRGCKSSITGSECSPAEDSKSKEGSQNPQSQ

ERβ [2] = target: T1, ERβ; settings: in the presence of ERβ
ERβ [3] = target: T1, ERβ; assay: Repression of TNF-α activation of TNF-RE tkLuc in U2OS cells with ERβ; type: cell-based; parameters: expressed in transfected cells

| effect on the extract's stimulatory effect on the ERE with ERβ (FIG. 6) (ERβ [1]) | repression of TNF-α activation of TNF-RE tkLuc (ERβ [2]) | repression of TNF-α activation of TNF-RE (ERβ [3]) [%] | Structure (SMILES) | reduction of the risk of primary invasive breast cancer (breast cancer; BCPT, women at high risk for breast cancer) [%] | reduction of the risk of recurrences (breast cancer; five years of therapy, women with estrogen receptor-positive breast cancer) [%] | reduction of mortality from breast cancer (breast cancer; five years of therapy) [%] | effect on the repression induced by E2 (TNF-RE tkLuc) | activation of TNF-RE tkLuc (TNF-RE tkLuc) [fold] |
| --- | --- | --- | --- | --- | --- | --- | --- | --- |
| – | – | – | CC/C(=C(\c1ccccc1)c1ccc(OCCN(C)C)cc1)c1ccccc1 [tamoxifen] | 49 | 42 | 22 | abolished | 2 |
| inhibited | – | – | O=C(c1ccc(OCCN2CCCCC2)cc1)c1c(-c2ccc(O)cc2)sc2cc(O)ccc12 [raloxifene] | – | – | – | abolished | 2 |
| – | 60-80% | 100 | C[C@]12CC[C@@H]3c4ccc(O)cc4CC[C@H]3[C@@H]1CC[C@@H]2O [E2, estradiol] | – | – | – | – | – |
| – | – | – | C[C@]12CC[C@@H]3c4ccc(O)cc4C[C@@H](CCCCCCCCC[S+]([O-])CCCC(F)(F)C(F)(F)F)[C@H]3[C@@H]1CC[C@@H]2O (stereo partly drawn) [ICI 182, 780] | – | – | – | abolished | 2 |
